Type in all cases: cell-based
One assay relates to K. pneumoniae MP-546. Nature of the assay: MIC determination by CLSI broth dilution, K. pneumoniae MP-546. The conditions noted are these: Klebsiella pneumoniae, MP546, CLSI broth dilution; strain MP-546.
The next assay has as its system E. coli MP-4. Nature of the assay: MIC determination by CLSI broth dilution, E. coli MP-4. Conditions: Escherichia coli, MP4, CLSI broth dilution; strain MP-4.
The next assay deals with S. aureus MP-12. Nature of the assay: microbe, parasite or virus in culture. Conditions: Staphylococcus aureus, MP12, read-out: MIC S. aureus MP-12.
Another assay deals with A. baumannii MP-15. Put plainly: MIC determination by CLSI broth dilution, A. baumannii MP-15. Conditions: Acinetobacter baumannii, MP15, strain MP-15, read-out: MIC A. baumanii MP-15.
The next assay concerns K. pneumoniae MP-648. Nature of the assay: MIC determination by CLSI broth dilution, K. pneumoniae MP-648. The conditions noted are these: Klebsiella pneumoniae, MP648, CLSI broth dilution; strain MP-648.
The test system of another assay is P. aeruginosa MP-3. Nature of the assay: MIC determination by CLSI broth dilution, P. aeruginosa MP-3. Conditions: Pseudomonas aeruginosa, MP3, strain MP-3.

Structures are written as SMILES. ≈ marks a conversion by molar mass, not a printed value.

`CO[C@]1(C)C[C@@H](C)CN(C)[C@H](CC2CCN(C(C)C)CC2)COC(=O)C(C)(C)C(=O)[C@H](C)[C@H]1O[C@@H]1O[C@H](C)C[C@H](N(C)C)[C@H]1O` [Compound 52]: the MIC with K. pneumoniae MP-546 is below 4 µg/mL; in the assay on E. coli MP-4, below 4 µg/mL; in the assay with S. aureus MP-12 it was 4 to 32 µg/mL (≈ 6.25 to 50 µM); in the assay with A. baumannii MP-15, above 32 µg/mL; with K. pneumoniae MP-648, 4 to 32 µg/mL (≈ 6.25 to 50 µM); in the assay with P. aeruginosa MP-3 it was above 32 µg/mL.
As for `CCCCCCCN1CCC(C[C@@H]2COC(=O)[C@@](C)(COC)C(=O)[C@H](C)[C@@H](O[C@@H]3O[C@H](C)C[C@H](N(C)C)[C@H]3O)[C@](C)(OC)C[C@@H](C)CN2C)CC1` [Compound 176], the MIC is below 4 µg/mL with K. pneumoniae MP-546; below 4 µg/mL with E. coli MP-4; above 32 µg/mL in the assay on S. aureus MP-12; above 32 µg/mL in the assay with A. baumannii MP-15; 4 to 32 µg/mL (≈ 5.51 to 44.1 µM) against K. pneumoniae MP-648; above 32 µg/mL against P. aeruginosa MP-3.
As for `CO[C@]1(C)C[C@@H](C)CN(CC(C)C)[C@@H](CCCN2CCCCC2)COC(=O)C(C)(C)C(=O)[C@H](C)[C@H]1O[C@@H]1O[C@H](C)C[C@H](N(C)C)[C@H]1O` [Compound 121, (3S,6R,8R,9R,10R)-9-(((2S,3R,4S,6R)-4-(dimethylamino)-3-hydroxy-6-methyltetrahydro-2H-pyran-2-yl)oxy)-4-isobutyl-8-methoxy-6,8,10,12,12-pentamethyl-3-(3-(piperidin-1-yl)propyl)-1-oxa-4-azacyclotridecane-11,13-dione], the MIC is 4 to 32 µg/mL (≈ 5.99 to 47.9 µM) against K. pneumoniae MP-546; below 4 µg/mL with E. coli MP-4; 4 to 32 µg/mL (≈ 5.99 to 47.9 µM) in the assay with S. aureus MP-12; above 32 µg/mL with A. baumannii MP-15; 4 to 32 µg/mL (≈ 5.99 to 47.9 µM) in the assay on K. pneumoniae MP-648; above 32 µg/mL with P. aeruginosa MP-3.
For `CO[C@]1(C)C[C@@H](C)CN(C)[C@@H](CCCN(C)C2CC2)COC(=O)C(C)(C)C(=O)[C@H](C)[C@H]1O[C@@H]1O[C@H](C)C[C@H](N(C)C)[C@H]1O` [Compound 90, (3S,6R,8R,9R,10R)-3-(3-(cyclopropyl(methyl)amino)propyl)-9-(((2S,3R,4S,6R)-4-(dimethylamino)-3-hydroxy-6-methyltetrahydro-2H-pyran-2-yl)oxy)-8-methoxy-4,6,8,10,12,12-hexamethyl-1-oxa-4-azacyclotridecane-11,13-dione], the MIC was below 4 µg/mL in the assay on K. pneumoniae MP-546; below 4 µg/mL with E. coli MP-4; 4 to 32 µg/mL (≈ 6.54 to 52.3 µM) in the assay on S. aureus MP-12; above 32 µg/mL with A. baumannii MP-15; 4 to 32 µg/mL (≈ 6.54 to 52.3 µM) in the assay with K. pneumoniae MP-648; above 32 µg/mL in the assay with P. aeruginosa MP-3.
In the case of `CO[C@]1(C)C[C@@H](C)CN(C)[C@H](CCCN2CCCCC2)COC(=O)C(C)(C)C(=O)[C@H](C)[C@H]1O[C@@H]1O[C@H](C)C[C@H](N(C)C)[C@H]1O` [Compound 93, (3R,6R,8R,9R,10R)-9-(((2S,3R,4S,6R)-4-(dimethylamino)-3-hydroxy-6-methyltetrahydro-2H-pyran-2-yl)oxy)-8-methoxy-4,6,8,10,12,12-hexamethyl-3-(3-(piperidin-1-yl)propyl)-1-oxa-4-azacyclotridecane-11,13-dione], the MIC in the assay with K. pneumoniae MP-546 is below 4 µg/mL; with E. coli MP-4 it was below 4 µg/mL; in the assay with S. aureus MP-12 it was 4 to 32 µg/mL (≈ 6.39 to 51.1 µM); in the assay with A. baumannii MP-15, above 32 µg/mL; in the assay on K. pneumoniae MP-648, below 4 µg/mL; against P. aeruginosa MP-3 it was above 32 µg/mL.
Regarding `CO[C@]1(C)C[C@@H](C)CN(C)[C@@H](CC2CCN(CC3CC=CCC3)CC2)COC(=O)C(C)(C)C(=O)[C@H](C)[C@H]1O[C@@H]1O[C@H](C)C[C@H](N(C)C)[C@H]1O` (stereo partly drawn) [Compound 73], the MIC is below 4 µg/mL against K. pneumoniae MP-546; below 4 µg/mL in the assay on E. coli MP-4; 4 to 32 µg/mL (≈ 5.78 to 46.2 µM) in the assay on S. aureus MP-12; above 32 µg/mL in the assay with A. baumannii MP-15; 4 to 32 µg/mL (≈ 5.78 to 46.2 µM) against K. pneumoniae MP-648; above 32 µg/mL in the assay with P. aeruginosa MP-3.
